Measurements taken from patent US11793823B2, “Compounds and pharmaceutical uses thereof” (SyneuRx International (Taiwan) Corp., priority 2020, dated 2023).
Read-outs that look alike come from different tables or passages of the source.

Assays:
[1] = molecular target: human D-amino acid oxidase (hDAAO) (Homo sapiens (Human), UniProt P14920); assay: In vitro human D-amino acid oxidase (hDAAO) activity, D-Serine/Amplex Red fluorescence; format: biochemical; conditions: D-Serine substrate, 20 min
Procedure, shortened: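 Recombinant hDAAO activity with D-serine as substrate; H2O2 was coupled via HRP to Amplex Red and fluorescence read at ex 530/em 590 nm at 0 and 20 min, dark, room temperature, Tris pH 8.5 with FAD. Inhibition came from the 20–0 min signal change relative to DMSO, and IC50 from nonlinear fits of 3-fold dilutions run in triplicate.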

MK-801 treated mice [2] = assay: Pre-pulse inhibition (PPI) test, MK-801 induced deficit of sensorimotor gating; format: in vivo; conditions: MK-801 0.3 mg/kg i.p.
Description: (§1) C57BL/6J male mice were group housed (3-5 mice per cage) with food and water available ad libitum in polysulfone ventilated cages (Alternative Design, AR, USA) in the animal room of SyneuRx. The colony was maintained on a 12/12-h light/dark cycle at the temperature of 22±2° C. and all behavioral studies were performed during the dark cycle. All animals used in this study were adult mice (at least 2.5 months of age). All animal procedures were performed according to the protocols approved by Institutional Animal Care and Use Committee (IACUC).
(§2) The mice were randomly assigned into five groups for open field test, Group 1: vehicle control, Group 2: MK-801, Group 3: Compound 66 at 10 mg/kg+MK-801, Group 4: Compound 66 at 30 mg/kg+MK-801, Group 5: Compound 66 at 100 mg/kg+MK-801. Mice at Group 2-5 received an acute administration of MK-801 (Sigma-Aldrich USA), a NMDA receptor antagonist, dissolved in normal saline, at 0.2 mg/kg for open field. For pre-pulse inhibition (PPI) test, animal was randomly assigned for four groups, Group 1: vehicle control, Group 2: MK-801, Group 3: Compound 66 at 3 mg/kg+MK-801, Group 4: Compound 66 at 10 mg/kg. Group 2-4 was received 0.3 mg/kg, MK-801. MK-801 was administrated by i.p. injection 20 minutes prior to open field and PPI tests. Test article, compound 66 (dissolved in ddH2O with 65% PEG400 and 10% DMSO), was orally treated 20 minutes prior to the MK-801 administration.
Pre-pulse inhibition, using SR-LAB startle apparatus (San Diego Instruments, San Diego, CA, USA), was used to determine the efficacy of compound 66 on attenuating the MK-801 induced deficit of sensorimotor gating function in mice. Under 65 dB background noise, each session was composed of a 5-minute accumulation period followed by 64 trials in four blocks. The pulse alone (PA) trial was a 40 ms, 120 dB white noise burst. In the prepulse (pp)+pulse trials, a 20 ms white noise prepulse stimuli of 71 dB (pp6), 75 dB (pp10), and 83 dB (pp18) were presented 100 ms before a 40 ms 120 dB pulse. The non-stimulus (NS) trials presented the background noise only. The initial and the last blocks were composed of six PA trials, respectively. Two middle blocks consisted of PA, pp+pulse, and NS trials. These trials were presented pseudo-randomly and separated by intertribal intervals of 15 seconds on average (varying between 10 to 20 s). The percentage of prepulse inhibition was evaluated by the following formula: % PPI=100×[(PA score)−(pp-P score)]/(PA score), where the PA score was the average of the PA value in the middle blocks.
as §2, with “74” for “66”, “field test.” for “field.”
All mice were tested with open field and pre-pulse inhibition tasks. The open field and pre-pulse inhibition tasks were used to evaluate the efficacy of the compound 74 on attenuating the MK-801 induced hyper-locomotion and deficit of sensorimotor gating function in mice, respectively. The apparatus and recording method of open field and pre-pulse inhibition task were as described above in Example 45. […]

MK-801 treated mice [3] = assay: Open field test, MK-801 induced hyper-locomotion; format: in vivo; conditions: for relief of MK801-induced hyperactivity: MK-801 0.2 mg/kg i.p., open field
Description: as §1, §2
The open field task is a common measurement of novelty induced exploratory behavior and general activity in both mice and rats. The objective of this experiment was to evaluate the efficacy of compound 66 on attenuating the MK-801 induced hyper-locomotion. In this study, the mice were placed in a Plexiglas cage (37.5 cm×21.5 cm×18 cm) under 50-65 lux light intensity. Their spontaneous locomotor activities were measured for 60 minutes using the Photobeam Activity System (PAS)-open field (San Diego Instruments, San Diego, CA, USA). The total number of photo beam breaks of each mouse was measured as an index of locomotion activity.
as §2, with “74” for “66”, “field test.” for “field.”
All mice were tested with open field and pre-pulse inhibition tasks. The open field and pre-pulse inhibition tasks were used to evaluate the efficacy of the compound 74 on attenuating the MK-801 induced hyper-locomotion and deficit of sensorimotor gating function in mice, respectively. The apparatus and recording method of open field and pre-pulse inhibition task were as described above in Example 45.
Mice at Group 2-5 received an acute administration of MK-801 (Sigma-Aldrich USA), a NMDA receptor antagonist, dissolved in normal saline, at 0.2 mg/kg for open field test. […] Group […] was received 0.3 mg/kg, MK-801. MK-801 was administrated by i.p. injection 20 minutes prior to open field and PPI tests.
The open field task is a common measurement of novelty induced exploratory behavior and general activity in both mice and rats. […] In this study, the mice were placed in a Plexiglas cage (37.5 cm×21.5 cm×18 cm) under 50-65 lux light intensity. […]

SARS-CoV-2 3CLPro = SARS-CoV-2 3CLPro (Severe acute respiratory syndrome coronavirus 2 (2019-nCoV) (SARS-CoV-2), UniProt P0DTD1); assay: biochemical; conditions: final DMSO concentration 2%

Sequence of human D-amino acid oxidase (hDAAO) (P14920 whole entry): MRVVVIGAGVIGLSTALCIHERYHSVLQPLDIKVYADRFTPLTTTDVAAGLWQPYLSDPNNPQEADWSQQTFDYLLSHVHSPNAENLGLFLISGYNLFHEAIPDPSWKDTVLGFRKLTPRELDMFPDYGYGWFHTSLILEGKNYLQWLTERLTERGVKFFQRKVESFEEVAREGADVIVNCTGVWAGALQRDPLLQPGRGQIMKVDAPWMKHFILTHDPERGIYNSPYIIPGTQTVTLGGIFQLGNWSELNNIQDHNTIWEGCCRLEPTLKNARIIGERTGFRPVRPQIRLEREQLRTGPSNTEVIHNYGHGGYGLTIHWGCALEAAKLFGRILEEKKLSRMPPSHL

Row | Structure (SMILES) | IC50 [1] [nM] | effect on pre-pulse inhibition vs MK-801 group (MK-801 treated mice [2]; 75 dB and 83 dB pre-pulse, 10 mg/kg oral) | effect on MK-801 induced hyper-locomotion vs MK-801 group (MK-801 treated mice [3]; 30 mg/kg and 100 mg/kg oral) | effect on MK-801 induced hyper-locomotion vs MK-801 group (MK-801 treated mice [3]; low dose 10 mg/kg oral) | relief of MK801-induced hyperactivity (MK-801 treated mice [3]; middle (30 mg/kg) and high dose (100 mg/kg) oral as worded) [%] | IC50 (SARS-CoV-2 3CLPro; read-out: IC50) [nM] | IC50 (SARS-CoV-2 3CLPro; read-out: IC50 (μg/mL) (converted)) [nM] | effect on pre-pulse inhibition vs MK-801 group (MK-801 treated mice [2]; 75 and 83 dB pre-pulse, all tested doses 3, 10 and 30 mg/kg oral) | effect on MK-801 induced hyper-locomotion vs MK-801 group (MK-801 treated mice [3]; 3 mg/kg and 10 mg/kg oral) | effect on MK-801 induced hyper-locomotion vs MK-801 group (MK-801 treated mice [3]; high dose 30 mg/kg oral) | relief of MK801-induced hyperactivity (MK-801 treated mice [3]; high dose 30 mg/kg oral) [%]
1 | O=C(O)c1cc(O)c(O)c(OC(=O)c2cc(O)c(O)c(OC(=O)c3cc(O)c(O)c(OC(=O)c4cc(O)c(O)c(OC(=O)c5cc(O)c(O)c(OC(=O)c6cc(CCc7ccccc7C(F)(F)F)n[nH]6)c5)c4)c3)c2)c1 [Compound 74, 3-((3-((3-((3-((3,4-dihydroxy-5-((3-(2-(trifluoromethyl)phenethyl)-1H-pyrazole-5-carbonyl)oxy)benzoyl)oxy)-4,5-dihydroxybenzoyl)oxy)-4,5-dihydroxybenzoyl)oxy)-4,5-dihydroxybenzoyl)oxy)-4,5-dihydroxybenzoic acid] | 31 | significantly improved PPI | significantly reduced | marginally lower locomotion activity | 69 | > 31200 | > 31200 |  |  |  | 
2 | O=C(Oc1cc(C(=O)Oc2cc(C(=O)Oc3cc(C(=O)O[C@H]4OC[C@@H](OC(=O)c5cc(O)c(O)c(OC(=O)c6cc(O)c(O)c(OC(=O)c7cc(O)c(O)c(OC(=O)c8cc(O)c(O)c(O)c8)c7)c6)c5)[C@H](OC(=O)c5cc(O)c(O)c(OC(=O)c6cc(O)c(O)c(OC(=O)c7cc(O)c(O)c(OC(=O)c8cc(O)c(O)c(O)c8)c7)c6)c5)[C@H]4OC(=O)c4cc(O)c(O)c(OC(=O)c5cc(O)c(O)c(OC(=O)c6cc(O)c(O)c(OC(=O)c7cc(O)c(O)c(O)c7)c6)c5)c4)cc(O)c3O)cc(O)c2O)cc(O)c1O)c1cc(O)c(O)c(O)c1 [Compound 121, (2R,3R,4S,5R)-tetrahydro-2H-pyran-2,3,4,5-tetrayl tetrakis(3-((3-((3,4-dihydroxy-5-((3,4,5-trihydroxybenzoyl)oxy)benzoyl)oxy)-4,5-dihydroxybenzoyl)oxy)-4,5-dihydroxybenzoate)] | 2.5 |  |  |  |  |  |  | higher potency | marginally lower locomotion activity | significantly reduced | 48
